# Test results as given in patent US20140228286A1, “SPECIFIC PDE4B-INHIBITORS FOR THE TREATMENT OF DIABETES MELLITUS” (BOEHRINGER INGELHEIM INTERNATIONAL GMBH, priority 2013, published 2014).
# Key:
# Sprague Dawley (SD) rats = experiment: Oral glucose tolerance test in overnight fasted male Sprague Dawley rats; format: in vivo, rat; details: 60 min before oral glucose load 2 g/kg, versus vehicle control
# Description: An oral glucose tolerance test is performed in overnight fasted male Sprague Dawley (SD) rats (RjHan:SD), with a weight of 320-350 g. A pre-dose blood sample is obtained by tail bleed. Blood glucose is measured with a glucometer, and the animals are randomized for blood glucose (n=6/group). Subsequently, the groups receive a single oral administration of either vehicle alone (0.5% aqueous hydroxyethyl-cellulose) or vehicle containing one of the PDE4 inhibitors. The animals receive an oral glucose load (2 g/kg) 60 min after compound administration. Blood glucose is measured in tail blood 15 min, 30 min, 60 min, 90 min, and 120 min after the glucose challenge. Glucose excursion is quantified by calculating the reactive glucose AUC (area under the curve). The data are presented as mean±SEM (standard error of mean). The two-sided unpaired Student t-test is used for statistical comparison of the control group and the active groups.
# “Cpd. A” is the PDE4 inhibitor Example 1.35 at a dose of 1 and 3 mg/kg. “Cpd. B” is the PDE4 inhibitor Example 1.46 at a dose of 1 and 3 mg/kg. P values versus control are indicated by symbols above the bars (*, p<0.05). Cpd. A (=Example 1.35) reduces glucose excursion by 13.2 (p=0.09) and 15.0% (p=0.11) with a dose of 1 and 3 mg/kg, respectively. Cpd. […] Cpd.
# PDE4B = molecular target: T1, PDE4B (Homo sapiens, UniProt Q07343); experiment: PDE4B Scintillation Proximity (SPA) Assay; format: biochemical; details: PDE4B active site fragment amino acids 152-484; [3H]cAMP; 30° C., one hour; read-out: Experimentally determined IC50-value for PDE4B inhibition
# T1 construct: active site fragment comprising the amino acids 152-484
# From the text: The IC50-values of the compounds of the invention (Examples 1.1 to 1.47) with respect to their PDE4B-inhibiting ability have been determined with a Scintillation Proximity (SPA) Assay (GE Healthcare, No. TRKQ7090). The Scintillation Proximity (SPA) Assay is based on the detection of the different affinities of the cyclic 3′-5′adenosine monophosphate (cAMP, low affinity) and the linear 5′-adenosine monophosphate (AMP, high affinity) to yttrium-silicate-scintillator beads. The cAMP-specific phosphodiesterase (PDE) PDE4B cleaves the 3′-phosphodiester bond of the tritium-labelled-[^3H]cAMP to the [^3H]5′-AMP. This [^3H]5′-AMP associates with the scintillator beads because of their higher affinity and causes scintillations (light flashes) which can be measured in a Wallac Microbeta Scintillation Counter.
# 10 μl of a [^3H]cAMP-solution (0.05 μCi in H2O, 10-30 Ci/mmol) are added to 89 μl of a PDE4B-enzyme-solution (active site fragment comprising the amino acids 152-484; 0.15-0.18 ng) in assay buffer (50 mM Tris HCl pH 7.5; 8.3 mM MgCl2; 1,7 mM ethylene glyclol tetraacetic acid (EGTA); 0.25 mg/ml bovine serum albumin (BSA)) and this mixture is incubated at 30° C. for one hour
# a) without the compound to be tested (in the presence of 1 μl dimethylsulfoxide (DMSO), corresponding to 1% DMSO) and b) in the presence of the compound to be tested in a concentration of 125 μM, 25 μM, 5 μM, 1 μM, 200 nM, 40 nM, 8 nM, 1.6 nM, 0.32 nM, 0.064 nM, 0.0128 nM (dilution series in 5er-steps beginning from 125 μM until 0.0128 nM, in the presence of 1% DMSO).
# After this incubation the reaction is stopped by the addition of 50 μl of bead-solution (500 mg beads/35 ml H2O, 18 mM zinc sulfate). In the following 45 minutes the beads have the opportunity to form a sediment. After that the scintillations are measured in the scintillation counter. If the tested compound is able to inhibit the enzymatic activity of the PDE4B-enzyme, less [^3H]AMP depending on the concentration of the tested compound is produced and less scintillations are measurable. […] The IC50-value stands for the compound concentration at which the PDE4B enzyme activity is inhibited to a half maximal value. Therefore the lower the IC50-value is the better is the PDE4B inhibition.
# T1 sequence (Q07343 324-656): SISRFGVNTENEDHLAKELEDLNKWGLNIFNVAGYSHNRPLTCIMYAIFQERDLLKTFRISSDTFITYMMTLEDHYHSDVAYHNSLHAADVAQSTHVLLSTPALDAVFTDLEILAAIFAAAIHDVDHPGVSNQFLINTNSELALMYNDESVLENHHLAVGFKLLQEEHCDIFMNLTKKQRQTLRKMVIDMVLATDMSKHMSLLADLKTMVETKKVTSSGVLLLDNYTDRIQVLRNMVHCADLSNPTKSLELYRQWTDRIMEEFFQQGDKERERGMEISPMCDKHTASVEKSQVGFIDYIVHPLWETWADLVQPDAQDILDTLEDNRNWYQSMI
smiles,measurement,setting,value
"[O-][S+]1CCc2nc(N3CCC(Oc4ccc(Cl)cc4)CC3)nc(NC3CCOCC3)c21 (stereo not drawn) [Example 1.35, {2-[4-(4-chlorophenoxy)-piperidin-1-yl]-5-oxo-6,7-dihydro-5H-5λ^4-thieno[3,2-d]pyrimidin-4-yl}-(tetrahydropyran-4-yl)-amine]",reduces glucose excursion (reactive glucose AUC),Sprague Dawley (SD) rats; single oral dose 1 mg/kg,13.2%
same,reduces glucose excursion (reactive glucose AUC),Sprague Dawley (SD) rats; single oral dose 3 mg/kg,15.0%
same,IC50,PDE4B,3.9 nM
